The values below come from patent publication US20260364214A1, “MULTIVALENT FIBROBLAST ACTIVATION PROTEIN LIGANDS FOR TARGETED DELIVERY APPLICATIONS” (Philochem AG, priority 2022, published 2026).

The term IC50 denotes the point on the concentration scale where inhibition reaches its midpoint.

The structures appear in SMILES notation.

One assay addresses T1, recombinant hFAP (Homo sapiens, UniProt Q12884).
T1 sequence (Q12884 26-760 limits assumed): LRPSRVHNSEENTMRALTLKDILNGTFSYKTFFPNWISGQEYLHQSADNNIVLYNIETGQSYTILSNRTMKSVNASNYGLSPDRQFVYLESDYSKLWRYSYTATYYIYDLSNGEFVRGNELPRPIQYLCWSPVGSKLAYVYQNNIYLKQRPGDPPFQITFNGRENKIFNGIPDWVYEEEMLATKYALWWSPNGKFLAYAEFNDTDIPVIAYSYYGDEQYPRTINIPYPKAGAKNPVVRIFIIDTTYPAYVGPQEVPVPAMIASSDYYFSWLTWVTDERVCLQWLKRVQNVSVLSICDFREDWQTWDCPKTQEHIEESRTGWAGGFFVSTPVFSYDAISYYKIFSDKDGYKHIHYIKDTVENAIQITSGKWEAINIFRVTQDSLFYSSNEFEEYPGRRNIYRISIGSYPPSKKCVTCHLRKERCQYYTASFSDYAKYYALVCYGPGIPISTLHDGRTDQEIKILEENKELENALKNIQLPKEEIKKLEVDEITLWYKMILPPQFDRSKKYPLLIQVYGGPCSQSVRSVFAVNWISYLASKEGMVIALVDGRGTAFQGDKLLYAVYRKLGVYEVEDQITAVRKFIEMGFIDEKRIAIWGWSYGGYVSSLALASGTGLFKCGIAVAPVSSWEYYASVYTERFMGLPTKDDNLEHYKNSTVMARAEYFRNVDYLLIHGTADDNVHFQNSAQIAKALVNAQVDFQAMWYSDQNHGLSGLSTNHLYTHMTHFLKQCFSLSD
Put plainly: hFAP inhibition assay (Z-Gly-Pro-AMC substrate). The class given is biochemical. Particulars: Z-Gly-Pro-AMC 20 μM; protein 66 μM; pH 7.4; room temperature. Here is the method:
(§1) Enzymatic activity of hFAP on the Z-Gly-Pro-AMC substrate was measured at room temperature on a microtiter plate reader, monitoring the fluorescence at an excitation wavelength of 360 nm and an emission wavelength of 465 nm. The reaction mixture contained substrate (20 μM), protein (66 μM, constant), assay buffer (50 mM Tris, 100 mM NaCl, and 1 mM EDTA, pH=7.4), and inhibitors with serial dilution from 167 nM to 80 fM, 1:2 in a total volume of 20 μL. Experiments were performed in triplicate, and the mean fluorescence values were fitted using Prism 7. The value is defined as the concentration of inhibitor required to reduce the enzyme activity by 50% after addition of the substrate [FIG. 1 and FIG. 8].
According to the same procedure, further comparative inhibition assays with trimeric binders having inter alia different lengths of linker group B and/or different payload groups C were performed with compounds Tri-ESV6-ValCit-MMAE (14), Tri-ESV6-linker-DOTAGA (13) and diastereoisomers of Tri-ESV6-DOTAGA (11, 12) [FIG. 18]. Comparative hFAP inhibition assays with tetravalent binders 10 and 29 were also performed [FIG. 20].
as §1, with “substrate.” for “substrate [FIG. 1 and FIG. 8].”
as §1, with “e) Inhibition assay with Tri-ESV6-DOTAGA, Tetra-ESV6-DOTAGA, Hexa-ESV6-DOTAGA, Octa-ESV6-DOTAGA, ESV6-L-DOTAGA and BI-ESV6-L-DOTAGA. Enzymatic” for “Enzymatic”, “substrate.” for “substrate [FIG. 1 and FIG. 8].”
`N#C[C@@H]1CC(F)(F)CN1C(=O)CNC(=O)c1ccnc2c(NC(=O)CCC(=O)NCCOCCOCCC(=O)NCCNC(=O)CCOCC(COCCC(=O)NCCNC(=O)CCOCCOCCNC(=O)CCC(=O)Nc3cccc4c(C(=O)NCC(=O)N5CC(F)(F)C[C@H]5C#N)ccnc34)(COCCC(=O)NCCNC(=O)CCOCCOCCNC(=O)CCC(=O)Nc3cccc4c(C(=O)NCC(=O)N5CC(F)(F)C[C@H]5C#N)ccnc34)NC(=O)CCC(C(=O)O)N3CCN(CC(=O)O)CCN(CC(=O)O)CCN(CC(=O)O)CC3)cccc12` (stereo partly shown) [Tri-ESV6-PEG2-DOTAGA]: the IC50 stood at 0.038 nM. Take `N#C[C@@H]1CC(F)(F)CN1C(=O)CNC(=O)c1ccnc2c(NC(=O)CCC(=O)NCCOCCOCCOCCOCCC(=O)NCCNC(=O)CCOCC(COCCC(=O)NCCNC(=O)CCOCCOCCOCCOCCNC(=O)CCC(=O)Nc3cccc4c(C(=O)NCC(=O)N5CC(F)(F)C[C@H]5C#N)ccnc34)(COCCC(=O)NCCNC(=O)CCOCCOCCOCCOCCNC(=O)CCC(=O)Nc3cccc4c(C(=O)NCC(=O)N5CC(F)(F)C[C@H]5C#N)ccnc34)NC(=O)CCC(C(=O)O)N3CCN(CC(=O)O)CCN(CC(=O)O)CCN(CC(=O)O)CC3)cccc12` (stereo partly shown) [Tri-ESV6-PEG4-DOTAGA]: the IC50 was determined as 0.126 nM. On the same count and under the same terms, the figure for `N#C[C@@H]1CC(F)(F)CN1C(=O)CNC(=O)c1ccnc2c(NC(=O)CCC(=O)NCCOCCOCCOCCOCCOCCOCCC(=O)NCCNC(=O)CCOCC(COCCC(=O)NCCNC(=O)CCOCCOCCOCCOCCOCCOCCNC(=O)CCC(=O)Nc3cccc4c(C(=O)NCC(=O)N5CC(F)(F)C[C@H]5C#N)ccnc34)(COCCC(=O)NCCNC(=O)CCOCCOCCOCCOCCOCCOCCNC(=O)CCC(=O)Nc3cccc4c(C(=O)NCC(=O)N5CC(F)(F)C[C@H]5C#N)ccnc34)NC(=O)CCC(C(=O)O)N3CCN(CC(=O)O)CCN(CC(=O)O)CCN(CC(=O)O)CC3)cccc12` (stereo partly shown) [Tri-ESV6-PEG6-DOTAGA] is 0.273 nM; for `N#C[C@@H]1CC(F)(F)CN1C(=O)CNC(=O)c1ccnc2c(NC(=O)CCC(=O)NCCOCCOCCOCCOCCOCCOCCOCCOCCC(=O)NCCNC(=O)CCOCC(COCCC(=O)NCCNC(=O)CCOCCOCCOCCOCCOCCOCCOCCOCCNC(=O)CCC(=O)Nc3cccc4c(C(=O)NCC(=O)N5CC(F)(F)C[C@H]5C#N)ccnc34)(COCCC(=O)NCCNC(=O)CCOCCOCCOCCOCCOCCOCCOCCOCCNC(=O)CCC(=O)Nc3cccc4c(C(=O)NCC(=O)N5CC(F)(F)C[C@H]5C#N)ccnc34)NC(=O)CCC(C(=O)O)N3CCN(CC(=O)O)CCN(CC(=O)O)CCN(CC(=O)O)CC3)cccc12` (stereo partly shown) [Tri-ESV6-PEG8-DOTAGA] it is 1.1 nM.

Staying with this assay, now noted: recombinant hFAP.
Take `N#C[C@@H]1CC(F)(F)CN1C(=O)CNC(=O)c1ccnc2c(NC(=O)CCC(=O)NCCCCC(NC(=O)CCC(=O)Nc3cccc4c(C(=O)NCC(=O)N5CC(F)(F)C[C@H]5C#N)ccnc34)C(=O)NCCNC(=O)CCC(C(=O)O)N3CCN(CC(=O)O)CCN(CC(=O)O)CCN(CC(=O)O)CC3)cccc12` (stereo partly shown) [Bi-ESV6-DOTAGA, reference compound]: the “IC50 / inhibitory activity, comparison in words” value (shortened to “IC50 / inhibitory activity”) was “IC50 comparable to the ones of original derivatives”. For `N#C[C@@H]1CC(F)(F)CN1C(=O)CNC(=O)c1ccnc2c(NC(=O)CCC(=O)NCCNC(=O)CCOCCNC(=O)CCC(C(=O)O)N3CCN(CC(=O)O)CCN(CC(=O)O)CCN(CC(=O)O)CC3)cccc12` (stereo partly drawn) [ESV6-L-DOTAGA], the “IC50 / inhibitory activity” value is “IC50 comparable to the ones of original derivatives”.

`N#C[C@@H]1CC(F)(F)CN1C(=O)CNC(=O)c1ccnc2c(NC(=O)CCC(=O)NCCNC(=O)CCOCC(COCCC(=O)NCCNC(=O)CCC(=O)Nc3cccc4c(C(=O)NCC(=O)N5CC(F)(F)C[C@H]5C#N)ccnc34)NC(=O)CCOCC(COCCC(=O)NC(COCCC(=O)NCCNC(=O)CCC(=O)Nc3cccc4c(C(=O)NCC(=O)N5CC(F)(F)C[C@H]5C#N)ccnc34)COCCC(=O)NCCNC(=O)CCC(=O)Nc3cccc4c(C(=O)NCC(=O)N5CC(F)(F)C[C@H]5C#N)ccnc34)NC(=O)CCC(C(=O)O)N3CCN(CC(=O)O)CCN(CC(=O)O)CCN(CC(=O)O)CC3)cccc12` (stereo partly shown) [Tetra-ESV6-DOTAGA]: the “IC50 / inhibitory activity” value is reported as “directly proportional to the valency until Tetra-ESV6-DOTAGA”.
